From US12114689B2 (NICOVENTURES TRADING LIMITED, priority 2018, dated 2024)

Tests used:
[1] = binding energy with the cyclodextrin host; details: such as (2-Hydroxypropyl)-β-cyclodextrin
Source text: The flavor components should be added last; this is due to the generally higher binding energy (vs. nicotine) with the cyclodextrin host. […] For menthol example, the approximate binding energies are −4.13 Kcal·mol^−1 (nicotine) and −5.06 Kcal·mol^−1 (menthol). […] Microfiltration may then be performed, in this case, to remove any excess menthol which has not formed a complex with cyclodextrin.

[2] = cited from earlier work

Compound | approximate binding energy with the cyclodextrin host [1] [kcal/mol] | solubility in water compared to base cyclodextrins such as β-cyclodextrin [2]
CN1CCC[C@H]1c1cccnc1 (stereo in doubt) [Nicotine, 3-(1-methylpyrrolidin-2-yl) pyridine] | ~-4.13 | –
2-hydroxy-propyl-β-cyclodextrin [2-hydroxy-propyl-O-cyclodextrin] | – | increased solubility in water
CC1CCC(C(C)C)C(O)C1 (stereo not drawn) [menthol] | ~-5.06 | –
